Target: human Nav 1.8 (Homo sapiens, UniProt Q9Y5Y9)
Assay: E-VIPR assay detecting and measuring Nav inhibition properties
Type: cell-based
Conditions: HEK cells expressing a truncated form of human Nav 1.8; assay performed in the presence of human serum (compound numbers followed by "*"); read-out: measured IC50 value in the E-VIPR Assay
In short: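 Nav inhibition was read by E-VIPR: cells were electrically stimulated while coumarin/oxonol FRET emissions were recorded. Cells were HEK expressing a truncated human Nav 1.8 and co-transduced with KIR2.1, and were assayed in 25% final human serum.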

Sequence of human Nav 1.8 (Q9Y5Y9 126-399 limits assumed): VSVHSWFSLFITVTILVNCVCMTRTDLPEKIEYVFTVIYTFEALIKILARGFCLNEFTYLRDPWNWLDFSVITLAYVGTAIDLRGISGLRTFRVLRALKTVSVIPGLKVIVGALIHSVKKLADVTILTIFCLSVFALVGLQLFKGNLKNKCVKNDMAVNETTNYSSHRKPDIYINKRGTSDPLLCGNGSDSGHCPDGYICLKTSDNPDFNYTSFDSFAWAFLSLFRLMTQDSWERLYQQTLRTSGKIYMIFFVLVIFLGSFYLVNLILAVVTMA
Sequence of human Nav 1.8 (Q9Y5Y9 660-890 limits assumed): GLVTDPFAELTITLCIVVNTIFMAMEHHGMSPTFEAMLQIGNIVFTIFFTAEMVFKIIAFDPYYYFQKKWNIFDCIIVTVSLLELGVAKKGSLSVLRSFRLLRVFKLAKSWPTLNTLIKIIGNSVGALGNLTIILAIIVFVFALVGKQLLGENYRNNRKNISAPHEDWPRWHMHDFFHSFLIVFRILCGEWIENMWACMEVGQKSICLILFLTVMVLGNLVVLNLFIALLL
Sequence of human Nav 1.8 (Q9Y5Y9 1148-1722 limits assumed): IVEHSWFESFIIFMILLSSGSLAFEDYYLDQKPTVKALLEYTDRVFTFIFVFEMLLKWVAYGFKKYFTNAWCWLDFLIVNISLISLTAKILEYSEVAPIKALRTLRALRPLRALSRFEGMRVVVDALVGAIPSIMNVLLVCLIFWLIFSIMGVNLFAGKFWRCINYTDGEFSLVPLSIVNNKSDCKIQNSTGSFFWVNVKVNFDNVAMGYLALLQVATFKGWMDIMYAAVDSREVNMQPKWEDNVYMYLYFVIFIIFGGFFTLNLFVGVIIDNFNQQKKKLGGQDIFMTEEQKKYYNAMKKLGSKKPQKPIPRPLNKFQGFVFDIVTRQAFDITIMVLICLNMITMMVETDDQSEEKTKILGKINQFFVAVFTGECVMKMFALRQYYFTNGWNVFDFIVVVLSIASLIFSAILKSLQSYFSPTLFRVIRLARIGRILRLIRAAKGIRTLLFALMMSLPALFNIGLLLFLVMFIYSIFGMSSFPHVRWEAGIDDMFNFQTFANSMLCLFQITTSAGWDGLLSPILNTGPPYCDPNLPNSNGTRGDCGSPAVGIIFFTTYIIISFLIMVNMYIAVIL

For `Cc1c(F)ccc([C@@H]2C[C@](C)(C(F)(F)F)O[C@H]2C(=O)Nc2ccnc(C(N)=O)c2)c1OCCO` (single isomer, unassigned) [Compound 37], the IC50 was 0.1 to 1 µM.

Same assay, conditions: HEK cells expressing a truncated form of human Nav 1.8; compound numbers without "*" (not marked as run in the presence of human serum); read-out: measured IC50 value in the E-VIPR Assay

First: C[C@]1(C(F)(F)F)C[C@@H](c2ccc(OC(F)(F)F)cc2Cl)[C@H](C(=O)Nc2ccnc(C(N)=O)c2)O1 (stereo in doubt) [Compound 151, rel-4-((2R,3S,5R)-3-(2-chloro-4-(trifluoromethoxy)phenyl)-5-methyl-5-(trifluoromethyl)tetrahydrofuran-2-carboxamido) picolinamide]
Second: COCc1c([C@H]2[C@H](C(=O)Nc3ccnc(C(N)=O)c3)O[C@@](C)(C(F)(F)F)[C@H]2C)ccc(F)c1F (racemic) [Compound 145, rac-4-((2R,3S,4S,5R)-3-(3,4-difluoro-2-(methoxymethyl)phenyl)-4,5-dimethyl-5-(trifluoromethyl)tetrahydrofuran-2-carboxamido)picolinamide]
The IC50 of the first is higher: 0.01 to 0.1 µM for the first, under 0.01 µM for the second.

First: C[C@H]1[C@@H](c2ccc(F)c(F)c2OCCN2C[C@H]3C[C@@H]2CO3)[C@H](C(=O)Nc2ccnc(C(N)=O)c2)O[C@@]1(C)C(F)(F)F (relative stereo) [Compound 47, rel-4-((2R*,3S*,4S*,5R*)-3-(2-(2-((1R,4R)-2-oxa-5-azabicyclo[2.2.1]heptan-5-yl)ethoxy)-3,4-difluorophenyl)-4,5-dimethyl-5-(trifluoromethyl)tetrahydrofuran-2-carboxamido)picolinamide]
Second: C[C@H]1[C@@H](c2ccc(F)c(F)c2OCCN2CC3(CCO3)C2)[C@H](C(=O)Nc2ccnc(C(N)=O)c2)O[C@@]1(C)C(F)(F)F [Compound 57, 4-((2R,3S,4S,5R)-3-(2-(2-(1-oxa-6-azaspiro[3.3]heptan-6-yl)ethoxy)-3,4-difluorophenyl)-4,5-dimethyl-5-(trifluoromethyl)tetrahydrofuran-2-carboxamido)picolinamide]
The IC50 of the first is higher: 0.01 to 0.1 µM for the first, under 0.01 µM for the second.

First: COCc1c(F)ccc([C@@H]2[C@@H](C(=O)Nc3ccnc(C(N)=O)c3)O[C@](C)(C(F)(F)F)[C@@H]2C)c1OC (single isomer, unassigned) [Compound 139]
Second: COc1c([C@H]2[C@H](C(=O)Nc3ccnc(C(=O)O)c3)O[C@@](C)(C(F)(F)F)[C@H]2C)ccc(F)c1F [Compound 214, 4-((2R,3S,4S,5R)-3-(3,4-difluoro-2-methoxyphenyl)-4,5-dimethyl-5-(trifluoromethyl)tetrahydrofuran-2-carboxamido)picolinic acid]
The IC50 of the first is higher: at least 1 µM for the first, 0.01 to 0.1 µM for the second. The second is the more potent here.

First: C[C@H]1[C@@H](c2ccc(F)c(F)c2OC2CC(=NO)C2)[C@H](C(=O)Nc2ccnc(C(N)=O)c2)O[C@@]1(C)C(F)(F)F (stereo partly drawn) [Compound 192, 4-((2R,3S,4S,5R)-3-(3,4-difluoro-2-(3-(hydroxyimino)cyclobutoxy)phenyl)-4,5-dimethyl-5-(trifluoromethyl)tetrahydrofuran-2-carboxamido)picolinamide]
Second: C[C@H]1[C@@H](c2ccc(F)c(F)c2OC2CS(=O)(=O)C2)[C@H](C(=O)Nc2ccnc(C(N)=O)c2)O[C@@]1(C)C(F)(F)F [Compound 171, 4-((2R,3S,4S,5R)-3-(2-((1,1-dioxidothietan-3-yl)oxy)-3,4-difluorophenyl)-4,5-dimethyl-5-(trifluoromethyl)tetrahydrofuran-2-carboxamido)picolinamide]
The IC50 of the first is lower: under 0.01 µM for the first, 0.1 to 1 µM for the second.

First: C=C(CO)COc1c([C@H]2[C@H](C(=O)Nc3ccnc(C(N)=O)c3)O[C@@](C)(C(F)(F)F)[C@H]2C)ccc(F)c1F [Compound 132]
Second: CNC(=O)COc1c([C@H]2[C@H](C(=O)Nc3ccnc(C(N)=O)c3)O[C@@](C)(C(F)(F)F)[C@H]2C)ccc(F)c1F [Compound 96, 4-((2R,3S,4S,5R)-3-(3,4-difluoro-2-(2-(methylamino)-2-oxoethoxy)phenyl)-4,5-dimethyl-5-(trifluoromethyl)tetrahydrofuran-2-carboxamido)picolinamide]
The IC50 of the first is lower: under 0.01 µM for the first, 0.01 to 0.1 µM for the second.

`CO[C@H](CO)COc1c([C@H]2[C@H](C(=O)Nc3ccnc(C(N)=O)c3)O[C@@](C)(C(F)(F)F)[C@H]2C)ccc(F)c1F` (single isomer, unassigned) [Compound 160, rel-4-((2R*,3S*,4S*,5R*)-3-(3,4-difluoro-2-(3-hydroxy-2-methoxypropoxy)phenyl)-4,5-dimethyl-5-(trifluoromethyl)tetrahydrofuran-2-carboxamido)picolinamide] and `C[C@H](CO)COc1c([C@H]2[C@H](C(=O)Nc3ccnc(C(N)=O)c3)O[C@@](C)(C(F)(F)F)[C@H]2C)ccc(F)c1F` [Compound 82, 4-((2R,3S,4S,5R)-3-(3,4-difluoro-2-((R)-3-hydroxy-2-methylpropoxy)phenyl)-4,5-dimethyl-5-(trifluoromethyl)tetrahydrofuran-2-carboxamido)picolinamide] cannot be ordered by IC50: under 0.01 µM for the first, under 0.01 µM for the second.

First: COc1c([C@H]2[C@H](C(=O)Nc3ccnc(C(=O)N4CCNC(C)(C)C4)c3)O[C@@](C)(C(F)(F)F)[C@H]2C)ccc(F)c1F [Compound 241, (2R,3S,4S,5R)-3-(3,4-difluoro-2-methoxyphenyl)-N-(2-(3,3-dimethylpiperazine-1-carbonyl)pyridin-4-yl)-4,5-dimethyl-5-(trifluoromethyl)tetrahydrofuran-2-carboxamide]
Second: COc1c([C@H]2[C@H](C(=O)Nc3ccnc(C(=O)N4C[C@H](F)[C@@H](N(C)C)C4)c3)O[C@@](C)(C(F)(F)F)[C@H]2C)ccc(F)c1F [Compound 301, (2R,3S,4S,5R)-3-(3,4-difluoro-2-methoxyphenyl)-N-(2-((3S,4S)-3-(dimethylamino)-4-fluoropyrrolidine-1-carbonyl)pyridin-4-yl)-4,5-dimethyl-5-(trifluoromethyl)tetrahydrofuran-2-carboxamide]
The IC50 of the first is lower: under 0.01 µM for the first, 0.01 to 0.1 µM for the second. The first is the more potent here.

First: COc1c([C@H]2[C@H](C(=O)Nc3ccnc(C(=O)N[C@H]4CNCC[C@H]4OC)c3)O[C@@](C)(C(F)(F)F)[C@H]2C)ccc(F)c1F [Compound 246, 4-((2R,3S,4S,5R)-3-(3,4-difluoro-2-methoxyphenyl)-4,5-dimethyl-5-(trifluoromethyl)tetrahydrofuran-2-carboxamido)-N-((3S,4R)-4-methoxypiperidin-3-yl)picolinamide]
Second: COc1c([C@H]2[C@H](C(=O)Nc3ccnc(C(=O)N[C@@H]4CNC[C@H](C)C4)c3)O[C@@](C)(C(F)(F)F)[C@H]2C)ccc(F)c1F [Compound 252, 4-((2R,3S,4S,5R)-3-(3,4-difluoro-2-methoxyphenyl)-4,5-dimethyl-5-(trifluoromethyl)tetrahydrofuran-2-carboxamido)-N-((3S,5R)-5-methylpiperidin-3-yl)picolinamide]
The IC50 of the first is higher: 0.1 to 1 µM for the first, 0.01 to 0.1 µM for the second.

`CN[C@H]1CN(C(=O)c2cc(NC(=O)[C@@H]3O[C@@](C)(C(F)(F)F)[C@@H](C)[C@H]3c3ccc(F)c(F)c3OC)ccn2)C[C@H]1OC` [Compound 297, (2R,3S,4S,5R)-3-(3,4-difluoro-2-methoxyphenyl)-N-(2-((3R,4S)-3-methoxy-4-(methylamino)pyrrolidine-1-carbonyl)pyridin-4-yl)-4,5-dimethyl-5-(trifluoromethyl)tetrahydrofuran-2-carboxamide] and `COc1c([C@H]2[C@H](C(=O)Nc3ccnc(C(=O)N(C)O)c3)O[C@@](C)(C(F)(F)F)[C@H]2C)ccc(F)c1F` [Compound 217, 4-((2R,3S,4S,5R)-3-(3,4-difluoro-2-methoxyphenyl)-4,5-dimethyl-5-(trifluoromethyl)tetrahydrofuran-2-carboxamido)-N-hydroxy-N-methylpicolinamide] cannot be ordered by IC50: under 0.01 µM for the first, under 0.01 µM for the second.

Compared with `C[C@H]1[C@@H](c2ccc(F)c(F)c2OCc2cnco2)[C@H](C(=O)Nc2ccnc(C(N)=O)c2)O[C@@]1(C)C(F)(F)F` [Compound 6], `C[C@H]1[C@@H](c2ccc(F)c(F)c2OCCN(C)C)[C@H](C(=O)Nc2ccnc(C(N)=O)c2)O[C@@]1(C)C(F)(F)F` [Compound 44, 4-((2R,3S,4S,5R)-3-(2-(2-(dimethylamino)ethoxy)-3,4-difluorophenyl)-4,5-dimethyl-5-(trifluoromethyl)tetrahydrofuran-2-carboxamido) picolinamide] is higher in IC50: under 0.01 µM for the first, 0.01 to 0.1 µM for the second.

`C[C@H]1[C@@H](c2ccc(F)c(F)c2OCC2CCOC2)[C@H](C(=O)Nc2ccnc(C(N)=O)c2)O[C@@]1(C)C(F)(F)F` (single isomer, unassigned) [Compound 67] and `CC1C(c2ccc(F)c(F)c2OCC2CC(O)C2)C(C(=O)Nc2cccc(C(N)=O)c2)OC1(C)C(F)(F)F` (single isomer, unassigned) [Compound 197, rel-(2R*,3S*,4S*,5R*)-N-(3-carbamoylphenyl)-3-(3,4-difluoro-2-(((1r,3S)-3-hydroxycyclobutyl)methoxy)phenyl)-4,5-dimethyl-5-(trifluoromethyl)tetrahydrofuran-2-carboxamide] cannot be ordered by IC50: under 0.01 µM for the first, under 0.01 µM for the second.

First: CNC(=O)c1cc(NC(=O)[C@@H]2O[C@@](C)(C(F)(F)F)[C@@H](C)[C@H]2c2ccc(F)c(F)c2OC[C@H](C)N2CC3(COC3)C2)ccn1 [Compound 43, 4-((2R,3S,4S,5R)-3-(2-((S)-2-(2-oxa-6-azaspiro[3.3]heptan-6-yl)propoxy)-3,4-difluorophenyl)-4,5-dimethyl-5-(trifluoromethyl)tetrahydrofuran-2-carboxamido)-N-methylpicolinamide]
Second: COc1c([C@H]2[C@H](C(=O)Nc3cc(C(=O)N4CCNCC4)ncc3F)O[C@@](C)(C(F)(F)F)[C@H]2C)ccc(F)c1F [Compound 16, (2R,3S,4S,5R)-3-(3,4-difluoro-2-methoxy-phenyl)-N-[5-fluoro-2-(piperazine-1-carbonyl)-4-pyridyl]-4,5-dimethyl-5-(trifluoromethyl)tetrahydrofuran-2-carboxamide]
The IC50 of the first is lower: under 0.01 µM for the first, 0.01 to 0.1 µM for the second.
